Reference: patent publication US20220282304A1, “SAME-SAMPLE ANTIBIOTIC SUSCEPTIBILITY TEST AND RELATED COMPOSITIONS, METHODS AND SYSTEMS” (CALIFORNIA INSTITUTE OF TECHNOLOGY, priority 2021, published 2022)

Test system: Escherichia coli K12
Test: Digital same-sample filtration AST at four cell densities (Example 7)
Format: cell-based
Settings: for treated condition EINAPV (fraction extracellular): untreated EINAPV 0; for Both (number of wells) / Empty (number of wells) / Extracellular only (number of wells) / Intracellular only (number of wells): 60 minutes 37° C., qPCR
Procedure: The inoculum was small enough that no detectable difference in the sample's optical density at 600 mm (OD600) was detectable by a spectrophotometer with a sensitivity of 0.01 absorbance units. After an incubation at 37° C., the media became turbid with an OD600 of 0.22 absorbance units after 2.25 hours of incubation.
In this experiment, the number and volume of sample partitions was restricted, for logistical reasons, to 96 partitions 10 μL in volume, specifically the wells of a 96-well plate. A goal was chosen of having a >98% chance of ending up with at least 48 empty partitions. When all partitions are the same volume, the following formula relates the expected number of empty partitions, the partition volume, and the density of cells.
N is the total number of partitions, n is the number of empty partitions, V is the partition volume, D is the density of cells, and t is a threshold probability chosen by the practitioner. Thus, in order to achieve digital sample partitioning with the available 96-well plate, each 10 μL sample of the specimen practically contains between 0.02 and 2.5 cells on average. In this experiment, densities of 0, 0.5, 1, and 2 cells per sample were targeted. Due to systematic bias in the conversion of OD600 to cell density, the actual densities achieved were closer to 0, 0.09375, 0.1875, and 0.375 cells per sample. The specimen itself was diluted to a density of 37.5 CFU/mL (0.0375 cells/μL), 18.75 CFU/mL, and 9.375 CFU/mL to achieve the target sample densities. For the 0 cell samples, the specimen comprised sterile media.
To begin the AST protocol, the 4 contrived clinical specimen dilutions were physically split into the 24 partitions each by transferring 10 μL of the sample, in 24 separate transfers (actually 3 transfers with a multichannel pipette of each dilution), to wells of a 96-well microtiter plate. Each well contained 15 μL of Mueller-Hinton Broth (MHB) growth media. Half of the wells (48) contained 0 μg/mL of dissolved ETP antibiotic and served as reference condition antibiotic exposures. The other half of the wells contained 1.67 μg/mL of ETP (for a final concentration of 1.0 μg/mL) and served as 48 treated condition antibiotic exposures. Thus, in total there were 8 groups of 12 replicate wells: a treated and an untreated group of wells for each of the four specimen dilutions. In actuality, however, due to operator error, 4 treated 0 cell conditions and 4 untreated 0 cell conditions were converted into the corresponding 0.1875 cell conditions.
The 96 antibiotic exposures were incubated at 37° C. for 60 minutes.
The entire volume of each antibiotic exposure was transferred to a Millipore® 96-well sterile polystyrene MultiScreenHTS® filter plate (Millipore-Sigma MSGVS2210). Each well of the filter plate contained a hydrophilic polyvinylidene fluoride (PVDF) filter membrane with a 0.22 μm pore size. A 96-well polypropylene microtiter plate was affixed to the bottom of the filter plate. At approximately 78 minutes after the start of the exposure, the antibiotic exposures were centrifuged at 2200 relative centrifugal force to speed the passage of the antibiotic exposure through the filter and into 96-well microtiter plate. The collected fluid was called the “filtrate.” It is expected that the filtrate will contain all or most of the extracellular nucleic acids present in the antibiotic exposure, but none of the intracellular nucleic acids in the antibiotic exposure.
As soon as possible (e.g. 0-10 minutes) after the centrifugation of the filter plate, […] of fresh MHB media was spun through the filters after the first centrifugation (above) to wash away residual extracellular nucleic acids present in the small amount (about 3 μL) of fluid wetting the filters. This wash fluid is not collected with the filtrates.
The filtrates were frozen at −80° C. to prevent hypothetical rRNA degradation. Lucigen DNA Extraction Buffer was not used to “extract” the filtrate DNA. […]

[1] = Treated 1.0 μg ETP/mL, batch culture dilution 0 cells, 8 partitions
[2] = Treated 1.0 μg ETP/mL, batch culture dilution 0.09375 cells, 12 partitions
[3] = Treated 1.0 μg ETP/mL, batch culture dilution 0.1875 cells, 16 partitions
[4] = Treated 1.0 μg ETP/mL, batch culture dilution 0.375 cells, 12 partitions
[5] = Treated 1.0 μg ETP/mL, batch culture dilution 0 cells
[6] = Treated 1.0 μg ETP/mL, batch culture dilution 0.09375 cells
[7] = Treated 1.0 μg ETP/mL, batch culture dilution 0.1875 cells
[8] = Treated 1.0 μg ETP/mL, batch culture dilution 0.375 cells

## C[C@@H](O)[C@H]1C(=O)N2C(C(=O)O)=C(S[C@@H]3CN[C@H](C(=O)Nc4cccc(C(=O)O)c4)C3)[C@H](C)[C@H]12 [ETP, ertapenem]
1.0 μg/mL ETP, non-zero dilution 0.09375 cells
  treated condition EINAPV (fraction extracellular): 1
1.0 μg/mL ETP, non-zero dilution 0.1875 cells
  treated condition EINAPV (fraction extracellular): 1
1.0 μg/mL ETP, non-zero dilution 0.375 cells
  treated condition EINAPV (fraction extracellular): 1
1.0 μg/mL ETP, one pooled treated vs one pooled reference condition
  susceptibility call (measured TRPQ higher than APTV): susceptible
1.0 μg/mL ETP, significance threshold 0.001
  susceptibility call (binomial exact test): susceptible
[1]
  Both (number of wells): 0
  Empty (number of wells): 8
  Extracellular only (number of wells): 0
  Intracellular only (number of wells): 0
[2]
  Both (number of wells): 0
  Empty (number of wells): 10
  Extracellular only (number of wells): 2
  Intracellular only (number of wells): 0
[3]
  Both (number of wells): 0
  Empty (number of wells): 13
  Extracellular only (number of wells): 3
  Intracellular only (number of wells): 0
[4]
  Both (number of wells): 0
  Empty (number of wells): 2
  Extracellular only (number of wells): 10
  Intracellular only (number of wells): 0
[5]
  Intact (expected number of cells): 0
  Killed (expected number of cells): 0
[6]
  Intact (expected number of cells): 0
  Killed (expected number of cells): 2.14
[7]
  Intact (expected number of cells): 0
  Killed (expected number of cells): 3.32
[8]
  Intact (expected number of cells): 0
  Killed (expected number of cells): 15.69
Treated 1.0 μg ETP/mL, sum over dilutions, rounded to 21 lysis events
  estimated cells lysed, all treated samples pooled: 21.25
